14 compounds from PubChem BioAssay (NCI) can be followed below.

Some test systems named below: SF-295 CNS; NCI-H23 lung; SN12C renal; T-47D breast; MDA-MB-435; MDA-N; SW-620 colon; BT-549 breast; HOP-92 NSCLC; XF 498 CNS; HOP-18 NSCLC; KM20L2 colon.
What all share (test): NCI-60 cell line screen, 48 h

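48-hour exposure; five concentrations; linearly interpolated endpoints. The concentration for full growth arrest is given as TGI.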 Some results are limits rather than exact numbers.

`COc1cc(C2SCC(=O)N2c2ccc(NC(=O)c3ccc(N4C(=O)CSC4c4cc(OC)c(OC)c(OC)c4)cc3)cc2)cc(OC)c1OC` (configuration not stated): the TGI is greater than 100 µM in the test on SF-295 CNS; greater than 100 µM with NCI-H23 lung; greater than 100 µM in the test on SN12C renal; greater than 100 µM in the test with T-47D breast; 61.4 µM in the test on MDA-MB-435; 64 µM with MDA-N. Further, the TGI is greater than 100 µM with SW-620 colon, greater than 100 µM in the test on BT-549 breast and 79.1 µM with HOP-92 NSCLC.
`O=c1ccc2cc3ccc4cccc5ccc(c2o1)c3c45`: the TGI is 56.8 µM in the test on XF 498 CNS; greater than 100 µM in the test on SF-295 CNS; greater than 100 µM with NCI-H23 lung; greater than 100 µM in the test on SN12C renal; greater than 100 µM in the test with SW-620 colon; greater than 100 µM in the test on HOP-18 NSCLC. Besides, the TGI in the test with HOP-92 NSCLC and in the test with KM20L2 colon was greater than 100 µM throughout.
With `Cc1cc(=O)c2c([nH]1)NS(=O)(=O)NC2=O`, the TGI in the test on XF 498 CNS, in the test with SF-295 CNS, in the test with NCI-H23 lung, in the test on SN12C renal, with SW-620 colon and in the test on HOP-92 NSCLC was greater than 100 µM throughout.
For the compound `COCOc1ccc(Cn2c(=O)n(C)c(=O)c3c2ncn3C)cc1[N+](=O)[O-]`, the TGI in the test with SF-295 CNS, in the test with NCI-H23 lung, with SN12C renal, in the test with SW-620 colon and in the test on KM20L2 colon was greater than 100 µM each time.
Regarding `CCOc1cc(C2CC(c3ccc(NS(=O)(=O)c4cc([N+](=O)[O-])ccc4C)cc3)=NN2C(=O)c2ccccc2)ccc1O` (configuration not stated), the TGI is 87.7 µM in the test with SF-295 CNS; 69 µM in the test on NCI-H23 lung; 58.9 µM in the test on SN12C renal; 71.3 µM in the test on T-47D breast; greater than 100 µM in the test on MDA-MB-435; 70.6 µM in the test with MDA-N. Moreover, the TGI with SW-620 colon was greater than 100 µM; in the test with BT-549 breast, 93.3 µM; in the test on HOP-92 NSCLC, 47.6 µM.
As to `COc1ccc(C2(CC(C)O)SCCCS2)cc1` (configuration not stated), the TGI in the test with SF-295 CNS, with NCI-H23 lung, with SN12C renal, in the test with T-47D breast, in the test with MDA-MB-435 and with MDA-N was greater than 100 µM in each case. Moreover, the TGI in the test on SW-620 colon, in the test with BT-549 breast and in the test with HOP-92 NSCLC was greater than 100 µM throughout.
Take `Nc1c(-c2cccc3ccccc23)c2ccc([N+](=O)[O-])cc2c(=O)n1-c1nc2ccccc2s1`: the TGI in the test with SF-295 CNS was greater than 34.2 µM; in the test on NCI-H23 lung it was greater than 100 µM; in the test with SN12C renal, greater than 100 µM; in the test with T-47D breast, greater than 100 µM; in the test on MDA-MB-435, greater than 100 µM; in the test with MDA-N it was greater than 31.6 µM. In addition, the TGI in the test on SW-620 colon was greater than 100 µM; in the test with BT-549 breast it was greater than 100 µM; in the test with HOP-92 NSCLC, greater than 55.5 µM.
In the case of `COC(=O)[C@]12CC[C@H]3CN(C(=O)OCc4ccccc4)[C@H]([C@H]31)[C@H](c1ccco1)N2S(=O)(=O)c1ccc(C)cc1`, the TGI with SF-295 CNS was 81.9 µM; in the test with NCI-H23 lung, 48.5 µM; in the test with SN12C renal it was 39 µM; with T-47D breast, 93 µM; in the test on MDA-MB-435 it was 67.3 µM; in the test with MDA-N, 50.4 µM. In addition, the TGI with SW-620 colon is greater than 100 µM; in the test on BT-549 breast it was 35.6 µM; in the test on HOP-92 NSCLC it was 56.1 µM.
Regarding `COc1ccc2cc3c4cc5c(cc4cc[n+]3cc2c1OC)OCO5`, the TGI in the test on SF-295 CNS was greater than 93 µM; with NCI-H23 lung, 65.1 µM; in the test on SN12C renal, 54.2 µM; with T-47D breast, greater than 100 µM; with MDA-MB-435, 22.9 µM; in the test with MDA-N, 28.5 µM. The TGI in the test on SW-620 colon was greater than 62.2 µM; with BT-549 breast it was 7.83 µM; with HOP-92 NSCLC it was greater than 90.4 µM.
Regarding `CC(=O)N/N=C1\NC(=O)C[C@H]2[C@@H]3CC=C4C[C@@H](OC(C)=O)CC[C@]4(C)[C@H]3CC[C@]12C`, the TGI in the test with SF-295 CNS is 45.1 µM; with NCI-H23 lung, greater than 100 µM; with SN12C renal, greater than 100 µM; in the test with T-47D breast it was greater than 100 µM; with MDA-MB-435, greater than 100 µM; with MDA-N, greater than 100 µM. The TGI in the test on SW-620 colon is greater than 100 µM; in the test with BT-549 breast it was 32.7 µM; in the test with HOP-92 NSCLC, 31.9 µM.
For `CN(C)Cc1cc(C(=O)/C=C/c2ccc(O)cc2)cc(CN(C)C)c1O`, the TGI in the test with SF-295 CNS was greater than 100 µM; in the test with NCI-H23 lung it was greater than 100 µM; in the test on SN12C renal, 60.1 µM; in the test with T-47D breast, greater than 100 µM; in the test on MDA-MB-435, greater than 100 µM; with MDA-N it was greater than 100 µM. Moreover, the TGI in the test on SW-620 colon, with BT-549 breast and with HOP-92 NSCLC was greater than 100 µM in each case.
Consider `C(=N\NC1=NCCCN1)/c1ccc2ccccc2c1`, for which the TGI with SF-295 CNS amounted to 24.7 µM; in the test on NCI-H23 lung, 36.6 µM; with SN12C renal it was 26.6 µM; in the test on T-47D breast, 33 µM; in the test on MDA-MB-435, 18.7 µM; in the test on MDA-N, 22.5 µM. The TGI worked out at 28.4 µM in the test on SW-620 colon, 32.5 µM in the test on BT-549 breast and 25.1 µM with HOP-92 NSCLC.
As for `C/C(CC1C2CCCC1C2)=N\NC(N)=O` (configuration not stated), the TGI with SF-295 CNS, in the test on NCI-H23 lung, with SN12C renal, with T-47D breast, with MDA-MB-435 and in the test with MDA-N was greater than 100 µM each time. The TGI in the test with SW-620 colon, with BT-549 breast and in the test with HOP-92 NSCLC was greater than 100 µM throughout.
Regarding `C=CCNC(=S)/N=C/c1c(O)c2ccccc2oc1=O`, the TGI in the test on XF 498 CNS, in the test on SF-295 CNS, in the test on NCI-H23 lung, with SN12C renal, in the test with SW-620 colon and in the test with HOP-18 NSCLC was greater than 100 µM throughout. Also, the TGI in the test with HOP-92 NSCLC and with KM20L2 colon was greater than 100 µM throughout.
